In series [1] the target is T1, Nuclear receptor subfamily 4 group A member 2 (Homo sapiens, UniProt P43354). Kind of series: Inverse agonist activity at Gal4-fused human Nurr1 LBD expressed in HEK293T cells co-expressing firefly luciferase assessed as luciferase activity by hybrid reporter gene assay. The series is classed as cell-based.
Series [2] deals with T1, Nuclear receptor subfamily 4 group A member 2. Kind of series: Agonist activity at Gal4-fused human Nurr1 LBD expressed in HEK293T cells co-expressing firefly luciferase assessed as luciferase activity by hybrid reporter gene assay. The class given is cell-based. On the technique in general: A reporter such as luciferase makes a cellular process visible.
For series [3] the target is unchanged. Description: Agonist activity at Gal4-fused human Nurr1 LBD expressed in HEK293T cells co-expressing firefly luciferase assessed as fold increase in luciferase activity by hybrid reporter gene assay relative to control. The series is classed as cell-based. To be noted: filed as agonist.
Series [4] shares this target. Description: Inverse agonist activity at Gal4-fused human Nurr1 LBD expressed in HEK293T cells co-expressing firefly luciferase assessed as luciferase activity in presence of AQ by hybrid reporter gene assay. The class given is cell-based.
Series [5] shares this target. Description: Inverse agonist activity at human Nurr1 LBD assessed as displacement of NCoR1 from Nurr1 after 2 hrs by HTRF assay.
Series [6] has the same target. Description: Inverse agonist activity at human Nurr1 LBD assessed as displacement of NCoR2 from Nurr1 after 2 hrs by HTRF assay. (In general: Time-resolved FRET reads energy transfer from a long-lived donor to a nearby acceptor.)
The target is the same in series [7]. Kind of series: Inverse agonist activity at human Nurr1 LBD assessed as inhibition of NCoA6-Nurr1 interaction after 2 hrs by HTRF assay.
The target is the same in series [8]. Description: Inverse agonist activity at human Nurr1 LBD assessed as inhibition of SRC1-Nurr1 interaction after 2 hrs by HTRF assay.
For series [9] the target is unchanged. Description: Inverse agonist activity at human Nurr1 LBD assessed as inhibition of CBP1-Nurr1 interaction after 2 hrs by HTRF assay.
The target is the same in series [10]. Kind of series: Inverse agonist activity at human Nurr1 LBD assessed as inhibition of Nurr1 homodimerization after 2 hrs by HTRF assay. To be noted: filed as inverse agonist.
Series [11] has the same target. Kind of series: Inverse agonist activity at human Nurr1 LBD assessed as inhibition of heterodimerization of Nurr1 with RXRalpha after 2 hrs by HTRF assay.
Series [12] shares this target. Description: Inverse agonist activity at Gal4-fused human Nurr1 monomer response element NBRE expressed in HEK293T cells co-expressing firefly luciferase assessed as luciferase activity by hybrid reporter gene assay. The class given is cell-based.
Series [13] concerns T98G. Kind of series: Cytotoxicity against human T98G cells assessed as reduction in cell viability at >30 uM after 24 hrs by WST-1 assay. The class given is cell-based. In general terms: Tetrazolium dyes change colour on reduction, which living cells bring about.
Series [14] relates to HEK-293T. Kind of series: Cytotoxicity against human HEK293T cells assessed as reduction in cell viability at >30 uM after 24 hrs by WST-1 assay. The class given is cell-based.
Series [15] has as its target T1, Nuclear receptor subfamily 4 group A member 2. Kind of series: Agonist activity at Gal4-fused human Nurr1 LBD expressed in HEK293T cells co-expressing firefly luciferase assessed as luciferase activity in presence of 5-(Pyridin-3-yl)-1-methylindole-3-carboxylic Acid Methyl Ester by hybrid reporter gene assay. The series is classed as cell-based.
Series [16] deals with T98G. Description: Cytotoxicity against human T98G cells assessed as reduction in cell viability upto 100 uM after 24 hrs by WST-1 assay. The class given is cell-based.
Series [17] has as its system HEK-293T. Kind of series: Cytotoxicity against human HEK293T cells assessed as reduction in cell viability upto 100 uM after 24 hrs by WST-1 assay. The series is classed as cell-based.

SMILES strings stand for the structures. Calls of active or inactive are those of the source. The rule behind the calls is not given here.

T1 sequence (P43354 whole entry, the tested form may be a part): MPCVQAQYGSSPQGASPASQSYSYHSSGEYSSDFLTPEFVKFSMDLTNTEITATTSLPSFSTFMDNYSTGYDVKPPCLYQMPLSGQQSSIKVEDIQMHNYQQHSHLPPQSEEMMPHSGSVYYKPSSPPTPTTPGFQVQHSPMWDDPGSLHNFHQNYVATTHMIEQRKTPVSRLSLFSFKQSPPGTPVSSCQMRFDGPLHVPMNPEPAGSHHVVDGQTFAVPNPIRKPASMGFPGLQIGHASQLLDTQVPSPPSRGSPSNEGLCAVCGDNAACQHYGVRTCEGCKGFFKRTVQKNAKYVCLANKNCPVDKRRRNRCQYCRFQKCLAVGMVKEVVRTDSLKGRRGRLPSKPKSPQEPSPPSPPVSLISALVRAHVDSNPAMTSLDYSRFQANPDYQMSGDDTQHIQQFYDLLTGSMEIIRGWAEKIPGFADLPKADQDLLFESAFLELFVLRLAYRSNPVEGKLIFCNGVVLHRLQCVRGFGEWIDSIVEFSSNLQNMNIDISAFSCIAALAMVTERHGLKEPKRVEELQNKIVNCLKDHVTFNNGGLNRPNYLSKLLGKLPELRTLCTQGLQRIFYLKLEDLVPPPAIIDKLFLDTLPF

What is called IC50 is the point on the concentration scale where inhibition reaches its midpoint. On to `O=C(O)c1c[nH]c2ccccc12`, for which, in series [1] (hek293t), the IC50 result is recorded as “Not Active”.
In the case of `COC(=O)c1cn(C)c2ccccc12`, the concentration for half-maximal inhibition (IC50) in series [1] (read-out: IC50) was found to be 21 µM.
Usually EC50 stands for the concentration giving half of the maximal effect. Turning to `COC(=O)c1cn(-c2ccccc2)c2ccccc12`, the concentration for a half-maximal effect (EC50) in series [2] stood at 81 µM. Also, in series [3], the fold change (FC) is 1.9.
Consider `COC(=O)c1c[nH]c2ccc(C)cc12`, for which the half-inhibitory concentration (IC50) in series [1] (read-out: IC50) was determined as 20 µM.
`COC(=O)c1cn(C)c2c(Cl)cc(-c3cccnc3)cc12`: the IC50 in [1] (read-out: IC50) was determined as 11 µM.
With `COC(=O)c1c[nH]c2ccc(Cc3ccccc3)cc12`, in series [1] (hek293t), the IC50 entry is “Not Active”.
For `COC(=O)c1cn(C)c2ccc(-c3cccnc3)cc12`, the IC50 in series [1] (read-out: IC50) worked out at 3.8 µM; in series [4], 3.7 µM; in series [5], 57 µM; in [6], 29 µM; in series [12], 10 µM. Besides, the outcome in series [7], in series [8], in series [9] and in series [11] was inactive. Also, the values for the Activity result (in series [10]; in the series on T98G [13]; in the series with HEK-293T [14]) were “Dose-Dependent Effect”, “Toxic” and “Toxic”, respectively.
On to `CC(C)(C)OC(=O)c1c[nH]c2ccccc12`, for which the IC50 result in series [1] (hek293t) is reported as “Not Active”.
With `COC(=O)c1c[nH]c2c(C)cccc12`, in series [1] (read-out: IC50), the half-inhibitory concentration (IC50) stood at 35 µM.
On to `CCNC(=O)c1cn(C)c2ccc(-c3ccccc3)cc12`, for which the IC50 entry in series [1] (hek293t) is given as “Not Active”.
As to `O=C(Oc1ccccc1)c1c[nH]c2ccccc12`, the concentration giving a half-maximal response (EC50) in series [2] was 11 µM. The fold change (FC) in [3] is 1.93.
As to `O=Cc1c[nH]c2ccccc12` [3-FORMYLINDOLE], the IC50 entry in series [1] (hek293t) is listed as “Not Active”.
In the case of `COC(=O)c1c[nH]c2c(Cl)cccc12`, the 50% inhibitory concentration (IC50) in series [1] (read-out: IC50) is 19 µM.
For `CCn1cc(C(=O)OC)c2ccccc21`, the 50% inhibitory concentration (IC50) in series [1] (read-out: IC50) came to 31 µM.
As to `CC(=O)c1c[nH]c2ccccc12`, the half-inhibitory concentration (IC50) entry in [1] (hek293t) is “Not Active”.
Take `COC(=O)c1c[nH]c2cccc(Cl)c12`: the IC50 in series [1] (read-out: IC50) was determined as 55 µM.
Turning to `CCOC(=O)c1c[nH]c2ccccc12`, the half-inhibitory concentration (IC50) entry in [1] (hek293t) is “Not Active”.
As for `CCN(CC)Cc1cc(Nc2ccnc3cc(Cl)ccc23)ccc1O` [AMODIAQUINE], the 50% effective concentration (EC50) in series [2] was determined as 41 µM; in series [15] it was 82 µM.
For `COC(=O)c1c[nH]c2ccc(Cl)cc12`, in series [1] (read-out: IC50), the 50% inhibitory concentration (IC50) worked out at 24 µM.
Consider `COC(=O)c1c[nH]c2cc(C)ccc12`, for which the IC50 in series [1] (read-out: IC50) is 57 µM.
The same measure, in the same setting: the result for `COC(=O)c1c[nH]c2ccc(OC)cc12` reads 23 µM.
For the molecule `COC(=O)c1c[nH]c2cccc(C)c12`, the 50% inhibitory concentration (IC50) entry in series [1] (hek293t) is “Not Active”.
With `CN(C)C(=O)c1cn(C)c2ccc(-c3ccccc3)cc12`, the IC50 in [1] (read-out: IC50) was > 30 µM.
For the molecule `COC(=O)c1cn(C)c2ccc(-c3ccccc3)cc12`, the Activity result in the series on T98G [16] and with HEK-293T [17] was “Non-Toxic” throughout.
For `COC(=O)c1c[nH]c2c(OC)cccc12`, in series [1] (hek293t), the half-maximal inhibitory concentration (IC50) result is “Not Active”.
As for `COC(=O)c1c[nH]c2ccccc12`, the concentration for half-maximal inhibition (IC50) in [1] (read-out: IC50) turned out to be 48 µM.
Consider `CCC(=O)c1c[nH]c2ccccc12`, for which the half-maximal inhibitory concentration (IC50) entry in [1] (hek293t) is given as “Not Active”.
In the case of `COC(=O)c1cn(Cc2ccccc2)c2ccccc12`, the half-maximal inhibitory concentration (IC50) result in series [1] (hek293t) is on record as “Not Active”.
Turning to `COC(=O)c1c(Cl)[nH]c2ccccc12`, the half-maximal inhibitory concentration (IC50) in series [1] (read-out: IC50) stood at 34 µM.
Same read-out and setting: the result for `COC(=O)c1c(C)[nH]c2ccccc12` reads 53 µM; that for `COC(=O)c1c[nH]c2ccc(Br)cc12`, 15 µM; that for `CNC(=O)c1cn(C)c2ccc(-c3ccccc3)cc12`, 14 µM.

The values are drawn from ChEMBL document CHEMBL4837262, “Development and Profiling of Inverse Agonist Tools for the Neuroprotective Transcription Factor Nurr1” (J Med Chem, 2021).
